Publication PMC6576746, “Rational discovery of dual-indication multi-target PDE/Kinase inhibitor for precision anti-cancer therapy using structural systems pharmacology” (PLoS Computational Biology, 2019)

Tests used:
Assay in all cases: cells
Design in all cases: species or system panel of human cancer cell lines; Eurofins OncoPanel proliferation; nuclei count by high-content fluorescence imaging, 10-point dose response
BT-549 = details: Homo sapiens, BT-549, 72 h, cell count, 3 days
Outline: (§1)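 Ten half-log concentrations from 100 μM (0.1% DMSO max) applied one day post-seeding, 3-day exposure at 37°C; untreated time-zero plate for GI50. Readout is nuclear cell count by automated fluorescence imaging, giving EC50, IC50, GI50 and 0–10 activity area.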

Cal 27 = details: Homo sapiens, CAL-27, 72 h, cell count, 3 days
Outline: as §1

G-402 = details: Homo sapiens, G-402, 72 h, cell count, 3 days
Outline: as §1

GA-10 = details: Homo sapiens, GA-10, 72 h, cell count, 3 days
Outline: as §1

Hs 729 = details: 72 h, cell count, 3 days
Outline: as §1

NCI-H292 = details: Homo sapiens, NCI-H292, 72 h, cell count, 3 days
Outline: as §1

PFSK-1 = details: Homo sapiens, PFSK-1, 72 h, cell count, 3 days
Outline: as §1

RS4;11 = details: Homo sapiens, RS4-11, 72 h, cell count, 3 days
Outline: as §1

SJSA1 = details: Homo sapiens, SJSA-1, 72 h, cell count, 3 days
Outline: as §1

SW48 = details: Homo sapiens, SW48, 72 h, cell count, 3 days
Outline: as §1

SW900 = details: Homo sapiens, SW900, 72 h, cell count, 3 days
Outline: as §1

SW982 = details: Homo sapiens, SW982, 72 h, cell count, 3 days
Outline: as §1

TE 381.T = details: TE 381.T, 72 h, cell count, 3 days
Outline: as §1

TF-1 = details: Homo sapiens, TF-1, 72 h, cell count, 3 days
Outline: as §1

[1] = 50% of maximum possible response

## C[C@@H]1CC(=O)NN=C1c1ccc(NN=C(C#N)C#N)cc1 [levosimendan]
BT-549; [1]
  IC50: 15.4 µM
BT-549; corrected for time zero
  GI50: 11.3 µM
BT-549; curve inflection point
  EC50: 12.7 µM
Cal 27; [1]
  IC50: 14.9 µM
Cal 27; corrected for time zero
  GI50: 13.2 µM
Cal 27; curve inflection point
  EC50: 14.5 µM
G-402; [1]
  IC50: 10.1 µM
G-402; corrected for time zero
  GI50: 4.83 µM
G-402; curve inflection point
  EC50: 6.76 µM
GA-10; [1]
  IC50: 10.2 µM
GA-10; corrected for time zero
  GI50: 9.28 µM
GA-10; curve inflection point
  EC50: 10.2 µM
Hs 729; [1]
  IC50: > 100 µM
Hs 729; corrected for time zero
  GI50: 79.3 µM
Hs 729; curve inflection point
  EC50: > 100 µM
NCI-H292; [1]
  IC50: 40.3 µM
NCI-H292; corrected for time zero
  GI50: 34.4 µM
NCI-H292; curve inflection point
  EC50: 40.3 µM
PFSK-1; [1]
  IC50: 19.6 µM
PFSK-1; corrected for time zero
  GI50: 13.9 µM
PFSK-1; curve inflection point
  EC50: 19.6 µM
RS4;11; [1]
  IC50: 29.7 µM
RS4;11; corrected for time zero
  GI50: 19.6 µM
RS4;11; curve inflection point
  EC50: 25.4 µM
SJSA1; [1]
  IC50: 41.9 µM
SJSA1; corrected for time zero
  GI50: 18.4 µM
SJSA1; curve inflection point
  EC50: 41.9 µM
SW48; [1]
  IC50: 13.5 µM
SW48; corrected for time zero
  GI50: 9.81 µM
SW48; curve inflection point
  EC50: 13.5 µM
SW900; [1]
  IC50: 67.6 µM
SW900; corrected for time zero
  GI50: 35.9 µM
SW900; curve inflection point
  EC50: 67.6 µM
SW982; [1]
  IC50: 43.7 µM
SW982; corrected for time zero
  GI50: 31.3 µM
SW982; curve inflection point
  EC50: 43.7 µM
TE 381.T; [1]
  IC50: 24.5 µM
TE 381.T; corrected for time zero
  GI50: 15.5 µM
TE 381.T; curve inflection point
  EC50: 24.5 µM
TF-1; [1]
  IC50: 41.7 µM
TF-1; corrected for time zero
  GI50: 19.7 µM
TF-1; curve inflection point
  EC50: 41.7 µM
